Laboratory results from patent US20160186187A1, “REGULATABLE GENE EXPRESSION” (BIOSYNTIA APS, priority 2013, published 2016).
“Also recorded” adds a separate entry of the source.

Assays:
EcpGEBO5.1 [1] = experiment: Growth response of EcpGEBO5.1 for xanthine alkaloids (plate selection assay); type: cell-based, Escherichia coli; settings: for Growth, Selection: ampicillin 50 μg/mL, spectinomycin 80 μg/mL, chloramphenicol 30 μg/mL; for Growth, No Selection: plates without spectinomycin and chloramphenicol
Protocol: The growth response of EcpGEBO5.1 for 4 different xanthine alkaloids was determined empirically using a selection assay with varying concentrations xanthine-based compounds: theophylline, xanthine, theobromine and caffeine.
Procedure: 300-400 colony forming units were plated on plates containing ampicillin (50 μg/mL), spectinomycin (80 μg/mL), chloramphenicol (30 μg/mL) and the indicated concentration of xanthine-based compound—see Table 2: Dissociation constants (KJ for the xanthines with the aptamer region (mCTC8-4 aptamer) previously determined (Jenison et al., 1994). No selection means plates without spectinomycin and chloramphenicol. (+) means growth was observed. (−) means no growth was observed. (˜) means reduced growth was observed.

mCTC8-4 aptamer = settings: previously determined (Jenison et al., 1994); cited from earlier work
EcpGEBO5.1 + pZE21 = experiment: Growth response to xanthine in M9 minimal medium, control strain; type: cell-based, Escherichia coli; settings: for OD600 of EcpGEBO5.1 + pZE21: selection (chloramphenicol 30 μg/ml, spectinomycin 80 μg/ml), 16 h
Protocol: (§1) In order to test the hypothesis, growth experiments with and without xanthine was performed. First, in order eliminate the putative contribution of any background mutation of the genome or of the pGEBO5.1 assay plasmid the library plasmid encoding the putative xanthine permease (pZE21_1H) from the AB95D01 soil metagenomic library was extracted and retransformed in strain EcpGEBO5.1. Instead of testing the strain in LB-medium, xanthine-free M9 minimal medium was used to test the effect of defined xanthine concentrations. Strain EcpGEBO5.1 transformed with the empty cloning vector pZE21 (EcpGEBO5.1+pZE21) was used as a control. Both strains were inoculated in 3 ml M9 minimal medium supplemented with kanamycin 50 μg/ml and ampicillin 50 μg/ml and grown overnight. The next day a new 3 ml culture was prepared under same conditions and inoculated by transferring 30 μl from the initial culture. At exponential phase (when the optical density at 600 nm (0D600) had reached ˜0.5) the culture was used to inoculate 200 μl M9 minimal selective media in a microtiterplate with varying concentrations of xanthine (Table below). Inoculums were diluted such that the initial OD600 of each culture was exactly 0.01. The microtiter plate was incubated at 37° C. in an ELx808 Absorbance Microtiterplate Reader from Biotek with shaking at 200 rpm. OD600 was measured after 16 h and the average and standard deviation was calculated from three biological replicates of each xanthine concentration. When grown in concentrations of xanthine ranging from 0 mM to 1 mM but no chloramphenicol or spectinomycin both strains were unaffected by the presence of xanthine. When applying selection (chloramphenicol 30 μg/ml and spectinomycin 80 μg/ml), growth was observed only for the strain harbouring the xanthine permease containing plasmid (pZE21_1H) and only when xanthine was added (Table 3). The experiment confirms the prediction that the DNA insert is encoding a xanthine permease protein, and that the increased xanthine uptake enables growth under selective conditions.

EcpGEBO5.1 + pZE21_1H = experiment: Growth response to xanthine in M9 minimal medium, xanthine permease strain; type: cell-based, Escherichia coli; settings: for OD600 of EcpGEBO5.1 + pZE21_1H: selection (chloramphenicol 30 μg/ml, spectinomycin 80 μg/ml), 16 h
Protocol: as §1

EcpGEBO5.1 [2] = experiment: Spontaneous resistance of EcpGEBO5.1 in single and dual antibiotic selection (plating); type: cell-based, Escherichia coli; settings: for Growth on antibiotic plate: LB agar, chloramphenicol 30 μg/mL and/or spectinomycin 80 μg/mL; for Colonies on single selection plates (in words): three plates each, 24 h of incubation
Protocol: pGEBO5.1 was transformed into E. coli Dh10B cells (forming EcpGEBO5.1) using standard methods known to the skilled person. To test whether the double selection system solved the problem of spontaneous resistance, plating of up to 1.3×10^8 EcpGEBO5.1 cells was performed in 10 replicates on LB agar media containing spectinomycin (80 μg/mL) and chloramphenicol (30 μg/mL) (‘dual selection’). As a control, plating on plates containing only chloramphenicol (30 μg/mL) or spectinomycin (80 μg/mL) (‘single selection’) was each performed in triplicate (See Table 1). Each plate was incubated for 72 hours. Of the 10 plates with dual selection no colonies were observed within the first 48 hours of incubation. […] Therefore, it appears that the probability of a single mutation to confer spontaneous resistance to one antibiotic is significant whereas the probability of a simultaneous double mutation to confer spontaneous resistance to both antibiotics is effectively nil.

[3] = xanthine 0 mM to 1 mM, no chloramphenicol or spectinomycin
[4] = 1.3 × 10^6 CFU plated (1 ul), 24 h growth
[5] = 1.3 × 10^6 CFU plated (1 ul), 48 h growth
[6] = 1.3 × 10^6 CFU plated (1 ul), 72 h growth
[7] = 1.3 × 10^7 CFU plated (10 ul), 24 h growth
[8] = 1.3 × 10^7 CFU plated (10 ul), 48 h growth
[9] = 1.3 × 10^7 CFU plated (10 ul), 72 h growth

Compound: Cn1c(=O)c2c(ncn2C)n(C)c1=O [Caffeine, caffeine]
- Growth, Selection (EcpGEBO5.1 [1]; 3 mM xanthine compound): −
- Growth, No Selection (EcpGEBO5.1 [1]; 3 mM xanthine compound): +
- Growth, Selection (EcpGEBO5.1 [1]; 7 mM xanthine compound): −
- Kd (mCTC8-4 aptamer): 3500 ± 1500 µM

Compound: Cn1cnc2c1c(=O)[nH]c(=O)n2C [Theobromine, theobromine]
- Growth, Selection (EcpGEBO5.1 [1]; 1 mM xanthine compound): −
- Growth, No Selection (EcpGEBO5.1 [1]; 1 mM xanthine compound): +
- Kd (mCTC8-4 aptamer): > 500 µM

Compound: Cn1c(=O)c2[nH]cnc2n(C)c1=O [Theophylline, theophylline]
- Growth, No Selection (EcpGEBO5.1 [1]; 0.1 mM xanthine compound): +
- Growth, Selection (EcpGEBO5.1 [1]; 2 mM xanthine compound): +
- Growth, No Selection (EcpGEBO5.1 [1]; 2 mM xanthine compound): +
- Kd (mCTC8-4 aptamer): 0.32 ± 0.13 µM

Compound: O=c1[nH]c(=O)c2[nH]cnc2[nH]1 [Xanthine, xanthine]
- Growth, Selection (EcpGEBO5.1 [1]; 1 mM xanthine compound): −
- Growth, No Selection (EcpGEBO5.1 [1]; 1 mM xanthine compound): +
- Growth of EcpGEBO5.1 under selective conditions (in words) (EcpGEBO5.1 [1]; 1 mM xanthine in the growth medium): lack of growth; also recorded: did not enable growth
- Effect of xanthine on growth without selection (EcpGEBO5.1 + pZE21; [3]): unaffected
- OD600 of EcpGEBO5.1 + pZE21 (EcpGEBO5.1 + pZE21; xanthine 1.0 μM): 0.02 ± 0.00
- OD600 of EcpGEBO5.1 + pZE21 (EcpGEBO5.1 + pZE21; xanthine 1.5 μM): 0.02 ± 0.00
- OD600 of EcpGEBO5.1 + pZE21 (EcpGEBO5.1 + pZE21; xanthine 2.0 μM): 0.02 ± 0.00
- OD600 of EcpGEBO5.1 + pZE21 (EcpGEBO5.1 + pZE21; xanthine 2.5 μM): 0.03 ± 0.00
- OD600 of EcpGEBO5.1 + pZE21 (EcpGEBO5.1 + pZE21; xanthine 4.5 μM): 0.03 ± 0.00
- OD600 of EcpGEBO5.1 + pZE21 (EcpGEBO5.1 + pZE21; xanthine 12.5 μM): 0.03 ± 0.01
- Kd (mCTC8-4 aptamer): 8.5 ± 0.4 µM
- Effect of xanthine on growth without selection (EcpGEBO5.1 + pZE21_1H; [3]): unaffected
- OD600 of EcpGEBO5.1 + pZE21_1H (EcpGEBO5.1 + pZE21_1H; xanthine 1.0 μM): 0.17 ± 0.01
- OD600 of EcpGEBO5.1 + pZE21_1H (EcpGEBO5.1 + pZE21_1H; xanthine 1.5 μM): 0.29 ± 0.01
- OD600 of EcpGEBO5.1 + pZE21_1H (EcpGEBO5.1 + pZE21_1H; xanthine 2.0 μM): 0.37 ± 0.00
- OD600 of EcpGEBO5.1 + pZE21_1H (EcpGEBO5.1 + pZE21_1H; xanthine 2.5 μM): 0.42 ± 0.00
- OD600 of EcpGEBO5.1 + pZE21_1H (EcpGEBO5.1 + pZE21_1H; xanthine 4.5 μM): 0.50 ± 0.01
- OD600 of EcpGEBO5.1 + pZE21_1H (EcpGEBO5.1 + pZE21_1H; xanthine 12.5 μM): 0.51 ± 0.01

Compound: O=C(N[C@H](CO)[C@H](O)c1ccc([N+](=O)[O-])cc1)C(Cl)Cl [chloramphenicol]
- Growth on antibiotic plate (EcpGEBO5.1 [2]; [4]): −
- Growth on antibiotic plate (EcpGEBO5.1 [2]; [5]): + (‘+’ single colonies (1-1000))
- Growth on antibiotic plate (EcpGEBO5.1 [2]; [6]): + (‘+’ single colonies (1-1000))
- Growth on antibiotic plate (EcpGEBO5.1 [2]; [7]): + (‘+’ single colonies (1-1000))
- Growth on antibiotic plate (EcpGEBO5.1 [2]; [8]): ++
- Growth on antibiotic plate (EcpGEBO5.1 [2]; [9]): ++
- Colonies on single selection plates (in words) (EcpGEBO5.1 [2]): numerous colonies

Compound: CN[C@@H]1[C@H](O)[C@H](NC)[C@H]2O[C@@]3(O)C(=O)C[C@@H](C)O[C@H]3O[C@@H]2[C@H]1O [spectinomycin]
- Growth on antibiotic plate (EcpGEBO5.1 [2]; [4]): + (‘+’ single colonies (1-1000))
- Growth on antibiotic plate (EcpGEBO5.1 [2]; [5]): ++
- Growth on antibiotic plate (EcpGEBO5.1 [2]; [6]): ++
- Growth on antibiotic plate (EcpGEBO5.1 [2]; [7]): + (‘+’ single colonies (1-1000))
- Growth on antibiotic plate (EcpGEBO5.1 [2]; [8]): ++
- Growth on antibiotic plate (EcpGEBO5.1 [2]; [9]): ++
- Colonies on single selection plates (in words) (EcpGEBO5.1 [2]): numerous colonies
